From patent US20120035247A1, “RNA Interference Mediated Inhibition of Signal Transducer and Activator of Transcription 6 (STAT6) Gene Expression Using Short Interfering Nucleic Acid (siNA)” (Merck Sharp & Dohme Corp., priority 2009, published 2012)
[invAb] = inverted abasic unit; m = 2'-O-methyl; r = 2'-OH (RNA); f = 2'-fluoro

Legend:
STAT6 mRNA [1] = experiment: STAT6 siNA screen in mouse NIH 3T3 cells, STAT6 mRNA by quantitative RT-PCR (Taqman); format: cell-based; conditions: mouse NIH3T3 cells, 10 nM siNA, 24 hrs, normalized to GAPDH and non-targeting control, n = 2
Method: NIH 3T3 (mouse; ATCC cat# CRL-1658): Cells were cultured at 37° C. in the presence of 5% CO2 and grown in Dulbecco's modified Eagle's medium (DMEM) with 4 mM L-glutamine adjusted to contain 1.5 g/L sodium bicarbonate and 4.5 g/L glucose and supplemented with fetal bovine serum at a final concentration of 10%, 100 μg/mL of streptomycin, and 100 U/mL penicillin.
(§1) Cells were plated in all wells of a tissue-culture treated, 96-well plate at a final count of 5000 cells/well in […], of the appropriate culture media. The cells were cultured for 24 hours after plating at 37° C. in the presence of 5% CO2.
(§2) After 24 hours, complexes containing siNA and RNAiMax were created as follows: A solution of RNAiMax diluted 33-fold in OPTI-MEM was prepared. In parallel, solutions of the siNAs for testing were prepared to a final concentration of 120 nM in OPTI-MEM. After incubation of RNAiMax/OPTI-MEM solution at room temperature for 5 min, an equal volume of the siNA solution and the RNAiMax solution were added together for each of the siNAs.
(§3) This solution was incubated at room temperature for 20 minutes. After incubation, 20 uL of the solution was added to each of the relevant wells. The final concentration of siNA in each well was 10 nM and the final volume of RNAiMax in each well was 0.3u1.
(§4) The time of incubation with the RNAiMax-siNA complexes was 24 hours and there was no change in media between transfection and harvesting, unless otherwise indicated.
(§5) RNA was extracted from a 96-well plate using the TaqMan® Gene Expression Cells-to-CT™ Kit (Cat#4399002) with a modified protocol. Briefly, a 60 uL (1 plate) or 110 uL (2 plates) of the Lysis Solution with DNase I was dispensed into each well of the Lysis Buffer Plate (twin.tec full skirt plate). The lysis buffer and stop plates were stored at 4° C. until the cells were washed.
(§6) The plate was spun at 1100 rpm for 5 minutes. The culture medium was aspirated and discarded from the wells of the culture plate. The lysis was performed automatically using a BioMek FX instrument and method. After the Biomek method was completed, the lysis plate was incubated for 2 min. at room temperature. The lysis plate can be stored for 2 hours at 4° C., or at −20° C. or −80° C. for two months.
(§7) Each well of the reverse transcription plate required 10 uL of 2× reverse transcriptase Buffer, luL of 20× reverse transcription enzyme and 2 uL of nuclease-free water. The reverse transcription master mix was prepared by mixing 2× reverse transcription buffer, 20× reverse transcription enzyme mix, and nuclease-free water. 13 uL of the reverse transcription master mix was dispensed into each well of the reverse transcription plate (semi-skirted). A separate reverse transcription plate was prepared for each cell plate. The plate was loaded onto a Biomek NX or Biomek FX Dual-96 and the Biomek method was run. The program is programmed to automatically added 7 uL of lysate from the cell lysis procedure described above into each well of the reverse transcription plate. The plate is sealed and spun on a centrifuge (1000 rpm for 30 seconds) to settle the contents to the bottom of the reverse transcription plate. The plate is placed in a thermocycler at 37° C. for 60 min, 95° C. for 5 min, and 4° C. until the plate is removed from the thermocycler. Upon removal, if not used immediately, the plate was frozen at −20° C.
(§8) A series of probes and primers were used to detect the various mRNA transcripts of the genes of 13-Actin (human cell line only), and of STATE and GAPDH in mouse and human cell lines. All Taqman probes and primers for the experiments here-in described were supplied as pre-validated sets by Applied Biosystems, Inc. (see Table 2).
The assays were performed on an ABI 7900 instrument, according to the manufacturer's instructions. A TaqMan Gene Expression Master Mix (provided in the Cells-to-CTT™, Applied Biosystems, Cat #4399002) was used. […]

STAT6 mRNA [2] = experiment: STAT6 siNA screen and dose response in human A549 cells, STAT6 mRNA by quantitative RT-PCR (Taqman); format: cell-based; conditions: human A549 cells, 10 nM siNA, 24 hrs, normalized to GAPDH and non-targeting control, mean ± S.D., n = 3
Method: A549 (human; ATCC cat# CCL-185): Cells were cultured at 37° C. in the presence of 5% CO2 and grown in Ham's F12K medium with 2 mM L-glutamine adjusted to contain 1.5 g/L sodium bicarbonate and supplemented with fetal bovine serum at a final concentration of 10%, 100 μg/mL of streptomycin, and 100 U/mL penicillin.
as §1, §2, §3, §4, §5, §6, §7, §8
The assays were performed on an ABI 7900 instrument, according to the manufacturer's instructions. A TaqMan Gene Expression Master Mix (provided in the Cells-to-CTT™, Applied Biosystems, Cat #4399002) was used. The PCR reactions were carried out at 50° C. for 2 min, 95° C. for 20 min followed by 40 cycles at 95° C. for 15 secs and 60° C. for 1 min. […]

Substance	% KD STAT6 (STAT6 mRNA [1]) [%]	% KD STAT6 (STAT6 mRNA [2]) [%]
29991-DC: STAT6 siNA duplex; sense SEQ ID NO: 46, antisense SEQ ID NO: 47; target CAGCCAAAGCCCUAGUGCU, site 846 (sense CAGCCAAAGCCCUAGUGCUTT; antisense AGCACUAGGGCUUUGGCUGUU; sense: DNA at AGT, 2'-fluoro at CU, [invAb] at 5' end, 3' end, backbone not given here; antisense: sugars from the 5' end rrrmffmmmmffffmmffmmm, backbone not given here) [STAT6 siNA duplex; target …UAGUGCU, site 846]	−30 ± 9.2	−2.1 ± 17.7
30013-DC: STAT6 siNA duplex; sense SEQ ID NO: 90, antisense SEQ ID NO: 91; target CAUGGUGCCACCUUAUGAU, site 2280 (sense CAUGGUGCCACCUUAUGAUTT; antisense AUCAUAAGGUGGCACCAUGUU; sense: DNA at AGT, 2'-fluoro at CU, [invAb] at 5' end, 3' end, backbone not given here; antisense: sugars from the 5' end rrrmfmmmmfmmfmffmfmmm, backbone not given here) [STAT6 siNA duplex; target CAUGGUGCCACCUUAUGAU, site 2280]	46.1 ± 2.2	19.6 ± 13.6
29993-DC: STAT6 siNA duplex; sense SEQ ID NO: 50, antisense SEQ ID NO: 51; target CCCUUGAGAGCAUAUAUCA, site 519 (sense CCCUUGAGAGCAUAUAUCATT; antisense UGAUAUAUGCUCUCAAGGGUU; sense: DNA at AGT, 2'-fluoro at CU, [invAb] at 5' end, 3' end, backbone not given here; antisense: sugars from the 5' end rrrfmfmfmffmfmmmmmmmm, backbone not given here) [STAT6 siNA duplex; target CCCUUGAGAGCAUAUAUCA, site 519]	−23.4 ± 1.6	24.4 ± 8.1
30012-DC: STAT6 siNA duplex; sense SEQ ID NO: 88, antisense SEQ ID NO: 89; target CAUCGUGCAUGGUAACCAA, site 1521 (sense CAUCGUGCAUGGUAACCAATT; antisense UUGGUUACCAUGCACGAUGUU; sense: DNA at AGT, 2'-fluoro at CU, [invAb] at 5' end, 3' end, backbone not given here; antisense: sugars from the 5' end rrrmffmffmfmfmfmmfmmm, backbone not given here) [STAT6 siNA duplex; target CAUCGUGCAUGGUAACCAA, site 1521]	18 ± 3.2	−13.7 ± 15.8
29992-DC: STAT6 siNA duplex; sense SEQ ID NO: 48, antisense SEQ ID NO: 49; target CUGAGAACCCUCGUCACCA, site 1064 (sense CUGAGAACCCUCGUCACCATT; antisense UGGUGACGAGGGUUCUCAGUU; sense: DNA at AGT, 2'-fluoro at CU, [invAb] at 5' end, 3' end, backbone not given here; antisense: sugars from the 5' end rrrfmmfmmmmmfffffmmmm, backbone not given here) [STAT6 siNA duplex; target CUGAGAACCCUCGUCACCA, site 1064]	−0.5 ± 1	51.2 ± 0.4
30001-DC: STAT6 siNA duplex; sense SEQ ID NO: 66, antisense SEQ ID NO: 67; target GAAAGCCUGGUGGACAUUU, site 956 (sense GAAAGCCUGGUGGACAUUUTT; antisense AAAUGUCCACCAGGCUUUCUU; sense: DNA at AGT, 2'-fluoro at CU, [invAb] at 5' end, 3' end, backbone not given here; antisense: sugars from the 5' end rrrfmfffmffmmmfffffmm, backbone not given here) [STAT6 siNA duplex; target GAAAGCCUGGUGGACAUUU, site 956]	−5.9 ± 6.6	48.2 ± 5
30002-DC: STAT6 siNA duplex; sense SEQ ID NO: 68, antisense SEQ ID NO: 69; target GAUAGAAACUCCUGCUAAU, site 766 (sense GAUAGAAACUCCUGCUAAUTT; antisense AUUAGCAGGAGUUUCUAUCUU; sense: DNA at AGT, 2'-fluoro at CU, [invAb] at 5' end, 3' end, backbone not given here; antisense: sugars from the 5' end rrrmmfmmmmmfffffmffmm, backbone not given here) [STAT6 siNA duplex; target GAUAGAAACUCCUGCUAAU, site 766]	−22.3 ± 3.5	55.9 ± 9.4
30028-DC: STAT6 siNA duplex; sense SEQ ID NO: 120, antisense SEQ ID NO: 121; target CUGCCAAAGACCUGUCCAU, site 2049 (sense CUGCCAAAGACCUGUCCAUTT; antisense AUGGACAGGUCUUUGGCAGUU; sense: DNA at AGT, 2'-fluoro at CU, [invAb] at 5' end, 3' end, backbone not given here; antisense: sugars from the 5' end rrrmmfmmmfffffmmfmmmm, backbone not given here) [STAT6 siNA duplex; target CU…UGUCCAU, site 2049]	31.1 ± 4.3	29.5 ± 6.4
30025-DC: STAT6 siNA duplex; sense SEQ ID NO: 114, antisense SEQ ID NO: 115; target AACGCUGUCUCCGGAGCUA, site 1848 (sense AACGCUGUCUCCGGAGCUATT; antisense UAGCUCCGGAGACAGCGUUUU; sense: DNA at AGT, 2'-fluoro at CU, [invAb] at 5' end, 3' end, backbone not given here; antisense: sugars from the 5' end rrrffffmmmmmfmmfmffmm, backbone not given here) [STAT6 siNA duplex; target AACGCUGUCUCCGGAGCUA, site 1848]	34.2 ± 1.8	48.1 ± 7.5
30003-DC: STAT6 siNA duplex; sense SEQ ID NO: 70, antisense SEQ ID NO: 71; target CGUGGAAAGGGACCAACCA, site 2218 (sense CGUGGAAAGGGACCAACCATT; antisense UGGUUGGUCCCUUUCCACGUU; sense: DNA at AGT, 2'-fluoro at CU, [invAb] at 5' end, 3' end, backbone not given here; antisense: sugars from the 5' end rrrffmmfffffffffmfmmm, backbone not given here) [STAT6 siNA duplex; target CGU…, site 2218]	−22.6 ± 6.6	−11.1 ± 23.2
